Our source for the target mRNA knockdown values is the OligoGym collection.

HELM strings list units from the 5' end as sugar, base in round brackets, then linkage (d deoxyribose, r ribose, m 2'-O-methyl, p phosphodiester). Strings are as the collection lists them, not checked against the first reports. ss, as = sense and antisense strand; [una] = unlocked nucleic acid
Also: test system not given here.

The conditions of the data set: siRNA.
For the substance “RNA1{r(G)p.r(U)p.r(A)p.r(U)p.r(G)p.r(A)p.r(C)p.r(C)p.r(G)p.r(A)p.r(C)p.r(U)p.r(A)p.r(C)p.r(G)p.r(C)p.r(G)p.r(U)p.r(A)p.r(T)p.r(T)}|RNA2{r(U)p.r(U)p.r(C)p.r(A)p.r(G)p.r(U)p.r(G)p.r(U)p.r(G)p.r(A)p.r(U)p.r(G)p.r(A)p.r(C)p.r(A)p.[una](C)p.r(U)p.r(U)p.r(G)p.r(T)p.r(T)}$$$RNA1{StrandType:ss}|RNA2{StrandType:as}$”, the target mRNA knockdown is 29%. With “RNA1{r(G)p.r(U)p.r(A)p.r(U)p.r(G)p.r(A)p.r(C)p.r(C)p.r(G)p.r(A)p.r(C)p.r(U)p.r(A)p.r(C)p.r(G)p.r(C)p.r(G)p.r(U)p.r(A)p.r(T)p.r(T)}|RNA2{r(U)p.r(U)p.r(C)p.r(A)p.r(G)p.r(U)p.r(G)p.r(U)p.r(G)p.r(A)p.r(U)p.r(G)p.r(A)p.r(C)p.r(A)p.r(C)p.[una](U)p.r(U)p.r(G)p.r(T)p.r(T)}$$$RNA1{StrandType:ss}|RNA2{StrandType:as}$” the figure was 87%. Substance “RNA1{r(G)p.r(U)p.r(A)p.r(U)p.r(G)p.r(A)p.r(C)p.r(C)p.r(G)p.r(A)p.r(C)p.r(U)p.r(A)p.r(C)p.r(G)p.r(C)p.r(G)p.r(U)p.r(A)p.r(T)p.r(T)}|RNA2{r(U)p.r(U)p.r(C)p.r(A)p.r(G)p.r(U)p.r(G)p.r(U)p.r(G)p.r(A)p.r(U)p.r(G)p.r(A)p.r(C)p.r(A)p.r(C)p.r(U)p.[una](U)p.r(G)p.r(T)p.r(T)}$$$RNA1{StrandType:ss}|RNA2{StrandType:as}$” showed a target mRNA knockdown of 91%. The substance “RNA1{r(G)p.r(U)p.r(A)p.r(U)p.r(G)p.r(A)p.r(C)p.r(C)p.r(G)p.r(A)p.r(C)p.r(U)p.r(A)p.r(C)p.r(G)p.r(C)p.r(G)p.r(U)p.r(A)p.r(T)p.r(T)}|RNA2{r(U)p.r(U)p.r(C)p.r(A)p.r(G)p.r(U)p.r(G)p.r(U)p.r(G)p.r(A)p.r(U)p.r(G)p.r(A)p.r(C)p.r(A)p.r(C)p.r(U)p.r(U)p.[una](G)p.r(T)p.r(T)}$$$RNA1{StrandType:ss}|RNA2{StrandType:as}$” returned a target mRNA knockdown of 82%. With “RNA1{r(G)p.r(U)p.r(A)p.r(U)p.r(G)p.r(A)p.r(C)p.r(C)p.r(G)p.r(A)p.r(C)p.r(U)p.r(A)p.r(C)p.r(G)p.r(C)p.r(G)p.r(U)p.r(A)p.r(T)p.r(T)}|RNA2{r(U)p.r(U)p.r(C)p.r(A)p.r(G)p.r(U)p.r(G)p.r(U)p.r(G)p.r(A)p.r(U)p.r(G)p.r(A)p.r(C)p.r(A)p.r(C)p.r(U)p.r(U)p.r(G)p.[una](T)p.[una](T)}$$$RNA1{StrandType:ss}|RNA2{StrandType:as}$” the figure was 81%; with “RNA1{r(G)p.r(U)p.r(A)p.r(U)p.r(U)p.r(G)p.r(A)p.r(C)p.r(A)p.r(G)p.r(C)p.r(U)p.r(A)p.r(U)p.r(U)p.r(C)p.r(G)p.r(A)p.r(A)p.d(T)p.d(T)}|RNA2{r(U)p.r(U)p.r(C)p.r(G)p.r(A)p.r(A)p.r(U)p.r(A)p.r(G)p.r(C)p.r(U)p.r(G)p.r(U)p.r(C)p.r(A)p.r(A)p.r(U)p.r(A)p.r(C)p.d(T)p.d(T)}$$$RNA1{StrandType:ss}|RNA2{StrandType:as}$”, 73%; with “RNA1{r(G)p.r(U)p.r(C)p.m(U)p.r(A)p.m(U)p.r(G)p.r(C)p.m(C)p.r(A)p.r(A)p.r(G)p.r(A)p.r(A)p.r(G)p.r(G)p.r(G)p.r(A)p.r(G)p.r(T)p.r(T)}|RNA2{r(C)p.r(U)p.r(C)p.r(C)p.r(C)p.r(U)p.r(U)p.r(C)p.r(U)p.m(U)p.r(G)p.r(G)p.m(C)p.r(A)p.m(U)p.r(A)p.r(G)p.r(A)p.r(C)p.r(T)p.r(T)}$$$RNA1{StrandType:ss}|RNA2{StrandType:as}$”, 72%. With “RNA1{r(G)p.r(U)p.r(C)p.m(U)p.r(A)p.r(U)p.r(G)p.r(C)p.r(C)p.r(A)p.r(A)p.r(G)p.r(A)p.r(A)p.r(G)p.r(G)p.r(G)p.r(A)p.r(G)p.r(T)p.r(T)}|RNA2{r(C)p.r(U)p.r(C)p.r(C)p.r(C)p.r(U)p.r(U)p.r(C)p.r(U)p.r(U)p.r(G)p.r(G)p.r(C)p.r(A)p.m(U)p.r(A)p.r(G)p.r(A)p.r(C)p.r(T)p.r(T)}$$$RNA1{StrandType:ss}|RNA2{StrandType:as}$” the figure was 76%.
